From patent US7004171B2, “System for transvaginal drug delivery” (Hi-Gienic Intra Vaginal Technologies Ltd., priority 2002, dated 2006)

Conditions: Sorensen buffer pH 7.4, 37° C., 24 hours agitation, excess drug
Excerpt: The release medium used for these experiments was the Sorensen-Walbum buffer, chosen here due to its lack of absorbance in the UV range, thus causing less interference with the analytical drug detection process. The buffer consisted of glycine (0.1 M) and NaCl (0.1 M), adjusted to pH 7.4 with NaOH (0.1M).

saturation concentration: 100 µg/mL
Structure (SMILES): CC(C)Cc1ccc(C(C)C(=O)O)cc1 (stereo not shown) [Ibuprofen]
